Here are results for one molecule from patent US5441894A, “Device containing a light absorbing element for automated chemiluminescent immunoassays” (Abbott Laboratories, priority 1993, dated 1995).

The assay relates to Anti-phencyclidine antibodies. As to the kind of experiment: Ion-Capture Competitive Binding Assay For Phencyclidine (PCP) in Urine.

With `c1ccc(C2(N3CCCCC3)CCCCC2)cc1` [PCP, phencyclidine], the “% Bound” value (25 ng/mL PCP in urine, Side A) is given as 83.00%; the “% Bound” value (25 ng/mL PCP in urine, Side B) is reported as 85.50%; the “% Bound” value (60 ng/mL PCP in urine, Side A) is reported as 94.60%; the “% Bound” value (60 ng/mL PCP in urine, Side B) came to 94.19%; the “% Bound” value (120 ng/mL PCP in urine, Side A) stood at 97.44%; the “% Bound” value (120 ng/mL PCP in urine, Side B) is reported as 97.54%. In addition, the “% Bound” value came to 99.28% (250 ng/mL PCP in urine, Side A); 99.32% (250 ng/mL PCP in urine, Side B); 100.00% (500 ng/mL PCP in urine, Side A); 100.00% (500 ng/mL PCP in urine, Side B).
